Results taken from patent US8697385B1, “Protein controlling synthesis of collagen and associated methods” (Florida State University Research Foundation, Inc., priority 2009, dated 2014).

Experiments:
Format in all cases: cell-based, human
[1] = system: LARP6 and nonmuscle myosin; assay: Coimmunoprecipitation of nonmuscle myosin IIB with HA-tagged LARP6; conditions: lung fibroblasts; puromycin 200 μg/ml 2 h vs cycloheximide
Procedure: (§1) ML-7, blebbistatin, cytochalasin B, puromycin, and cycloheximide were purchased from Sigma. ML-7 was used at 40 μM, blebbistatin was used at 100 μM, and cytochalasin B was used at 20 μM. Cells were incubated with the drugs for 16 h before analysis. Puromycin (200 μg/ml) and cycloheximide (100 μg/ml) were added to the cells for 2 h. Human lung fibroblasts have been described previously.16 Scleroderma fibroblasts were purchased from the European Collection of Cell Cultures (cell line BM0070) and derived from the skin of a scleroderma patient. MEFs were derived from knock-in mice in which the 5′SL of the collagen α1(I) gene has been mutated (Parsons et al., submitted). Several independent cell isolates were used throughout the study. All cells were cultured in Dulbecco's modified Eagle's medium supplemented with 10% fetal bovine serum for up to 10 passages. Plasmid constructs and adenovirus preparation. […] [^32P]dCTP was included in the PCR step to label the products, which were resolved on sequencing gels, as described previously.^8,31,49,50 When RNA from polysomal fractions was analyzed, an equal aliquot of each fraction was used. […]
One of the roles of nonmuscle myosin filaments may be to present collagen mRNAs to ribosomes. Therefore, we assessed if the association of collagen mRNAs with nonmuscle myosin is dependent on intact polysomes. […]

[2] = system: nonmuscle myosin IIB; assay: Immunoprecipitation of nonmuscle myosin IIB and RT-PCR of collagen mRNAs; conditions: lung fibroblasts; cycloheximide 100 μg/ml or puromycin 200 μg/ml, 2 h
Procedure: as §1, with “submitted).” for “submitted). Several independent cell isolates were used throughout the study. All cells were cultured in Dulbecco's modified Eagle's medium supplemented with 10% fetal bovine serum for up to 10 passages. Plasmid constructs and adenovirus preparation.”
(§2) One of the roles of nonmuscle myosin filaments may be to present collagen mRNAs to ribosomes. Therefore, we assessed if the association of collagen mRNAs with nonmuscle myosin is dependent on intact polysomes. […] We then immunoprecipitated nonmuscle myosin from lung fibroblasts treated with cycloheximide or puromycin and analyzed if this can change the pull-down of collagen mRNAs. As control, the association with vimentin was analyzed in the same samples (FIG. 9b). […]

[3] = system: polysomes; assay: Fractionation of polysomes on sucrose gradients; conditions: 15-45% sucrose gradient, Western blot; puromycin or ML-7 treatment
Procedure: ML-7, blebbistatin, cytochalasin B, puromycin, and cycloheximide were purchased from Sigma. ML-7 was used at 40 μM, blebbistatin was used at 100 μM, and cytochalasin B was used at 20 μM. Cells were incubated with the drugs for 16 h before analysis. Puromycin (200 μg/ml) and cycloheximide (100 μg/ml) were added to the cells for 2 h. Human lung fibroblasts have been described previously.16 Scleroderma fibroblasts were purchased from the European Collection of Cell Cultures (cell line BM0070) and derived from the skin of a scleroderma patient. MEFs were derived from knock-in mice in which the 5′SL of the collagen α1(I) gene has been mutated (Parsons et al., submitted). Several independent cell isolates were used throughout the study. All cells were cultured in Dulbecco's modified Eagle's medium supplemented with 10% fetal bovine serum for up to 10 passages. Plasmid constructs and adenovirus preparation. The HA-tagged LARP6 clone and the deletion mutants have been described previously.^16 Adenoviruses were constructed by recloning of the constructs into the pAdCMVTRACK vector, followed by recombination with the pAdEasy vector and amplification, as described previously.^48 Expression of each construct was verified by Western blot analysis. The viruses made express both the full-size test protein and the green fluorescent protein (GFP), which is encoded by an independent transcription unit.^48 Expression of GFP served as control for viral transduction. RT-PCR analysis Total cellular RNA was isolated using an RNA isolation kit (Sigma). RT-PCRs were performed with 100 ng of total RNA or using rTth reverse transcriptase (Boca Scientific, Boca Raton, Fla.). [^32P]dCTP was included in the PCR step to label the products, which were resolved on sequencing gels, as described previously.^8,31,49,50 When RNA from polysomal fractions was analyzed, an equal aliquot of each fraction was used. The number of cycles was adjusted to within the linear range of the reaction. The primers used for RT-PCR were as follows: h-collagen α1(I), 5′ primer […] (SEQ ID NO:3) and 3′ primer […] (SEQ ID NO:4); h-collagen α2(I), 5′ primer […] (SEQ ID NO:5) and 3′ primer […] (SEQ ID NO:6).
Polysomes were fractionated as described previously.^16 Sucrose fractions (0.5 ml) were collected, and total RNA was extracted by phenol/chloroform and isopropanol precipitation. Equivalent amounts of each fraction were analyzed by RT-PCR. Total proteins were extracted from sucrose fractions by trichloroacetic acid precipitation, and equivalent amounts were analyzed by Western blot analysis.
One of the roles of nonmuscle myosin filaments may be to present collagen mRNAs to ribosomes. Therefore, we assessed if the association of collagen mRNAs with nonmuscle myosin is dependent on intact polysomes. […] Only the anti-myosin antibody immunoprecipitated collagen α1(I) and α2(I) mRNAs (lane 1). We then immunoprecipitated nonmuscle myosin from lung fibroblasts treated with cycloheximide or puromycin and analyzed if this can change the pull-down of collagen mRNAs. As control, the association with vimentin was analyzed in the same samples (FIG. 9b). […] The association of collagen mRNAs with vimentin increased after the dissociation of polysomes (lanes 3 and 4). […] To assess if nonmuscle myosin copurifies with polysomes, we fractionated polysomes on sucrose gradients^16 and analyzed for the presence of nonmuscle myosin in the fractions using Western blot analysis (FIG. 9f). […]

[4] = system: myosin IIB; assay: Western blot analysis of total nonmuscle myosin IIB level; conditions: lung fibroblasts; puromycin 200 μg/ml 2 h vs cycloheximide-treated cells
Procedure: as §1, with “passages.” for “passages. Plasmid constructs and adenovirus preparation.”
Protein concentration was estimated by the Bradford assay, with bovine serum albumin as standard.^51 Western blot analyses of cellular proteins were performed using 50 μg of protein. […] The medium was collected, and an aliquot was analyzed directly by Western blot analysis. […]

[5] = system: vimentin; assay: Immunoprecipitation of vimentin and RT-PCR of collagen mRNAs; conditions: lung fibroblasts; puromycin (dissociation of polysomes) vs cycloheximide
Procedure: as §1, with “submitted).” for “submitted). Several independent cell isolates were used throughout the study. All cells were cultured in Dulbecco's modified Eagle's medium supplemented with 10% fetal bovine serum for up to 10 passages. Plasmid constructs and adenovirus preparation.”
as §2

[6] = system: LARP6 and vimentin; assay: Coimmunoprecipitation of vimentin with HA-tagged LARP6; conditions: lung fibroblasts; puromycin 200 μg/ml 2 h vs cycloheximide
Procedure: as §1, with “submitted).” for “submitted). Several independent cell isolates were used throughout the study. All cells were cultured in Dulbecco's modified Eagle's medium supplemented with 10% fetal bovine serum for up to 10 passages. Plasmid constructs and adenovirus preparation.”
as §2

COc1ccc(C[C@H](N)C(=O)N[C@H]2[C@@H](O)[C@H](n3cnc4c(N(C)C)ncnc43)O[C@@H]2CO)cc1 [puromycin]
interaction of LARP6 and nonmuscle myosin [1]: decreased
collagen α1(I) and α2(I) mRNAs pulled down with nonmuscle myosin IIB [2]: the great majority of these mRNAs were absent
nonmuscle myosin in polysomal fractions [3]: some nonmuscle myosin was lost, mostly from fractions 1-10
total level of nonmuscle myosin [4]: did not change
association of collagen mRNAs with vimentin [5]: increased
interaction of LARP6 with vimentin [6]: increased
